# Data from patent US7932261B2, “Macrocycle derivatives useful as inhibitors of β-secretase (BACE)” (Janssen Pharmaceutica NV, priority 2006, dated 2011).
# How the values were obtained:
# [1] = biological target: T1, β-secretase (BACE) (Homo sapiens, UniProt P56817); experiment: in vitro BACE Assay, Ki (Example 14); type: biochemical
# T1 construct: purchased Panvera
# Method: (§1) The following assay buffers were prepared and used in this assay: (1) enzyme assay buffer (0.05 M sodium acetate, pH5, 0.1% PEG8000 (w/v)), (2) substrate assay buffer (0.05 M sodium acetate, pH5), and (3) compound vehicle (30% DMSO in 50 mM HEPES, pH 7.4).
# (§2) The FS1-substrate stock solution was prepared in DMSO as a 10 mg/mL solution. The FS1-substrate working solution was prepared by diluting the 10 mg/mL stock solution with substrate assay buffer to a final concentration of 300 μg/mL. The β-secretase (BACE) working solution was prepared by diluting a 0.83 mg/mL BACE stock solution with enzyme assay buffer to a final concentration of 4 μg/mL.
# Test compounds were dissolved in DMSO at 10 mM.
# (§3) The procedure for this assay was as follows: 15 μL of BACE working solution was pipetted into each well of a 96-well plate. To each well was then pipetted 2 μL of test compound at the selected concentration. Test compound and BACE were then mixed with a pipettor and incubated for 20 min at room temperature. To each well was then added 10 μL of the FS1 substrate working solution.
# (§4) The procedure for the positive control was as follows: 15 μL of BACE working solution was pipetted into each well to be used as a positive control. To each well was then pipetted 2 μL of vehicle. Vehicle and BACE were then mixed with a pipettor and incubated for 20 min at room temperature. To each well was then added 10 μL of the FS1 substrate working solution.
# For test compounds, Ki inhibition was determined as follows: For each compound concentration and positive control, rate of cleavage of substrate (Vi, where i=compound concentration in μM) was determined as Δ Fluorescence/Δ time (min). Cleavage rates (Vi) were plotted as a function of inhibitor concentration in μM [I]. The Ki was then determined by fitting the following equation to the graph of [I] vs. Vi Y=aVmax/(50+24*(1+X/Ki)),
# [2] = biological target: T1, β-secretase (BACE); experiment: in vitro BACE FS1 % Inhibition Assay (Example 13); type: biochemical; conditions: FS1 substrate, pH 5; for inhibition at 0.3 µM: read-out: % Inhibition (Example 13) @ 0.3 μM, 0.3 μM compound; for inhibition at 1 µM: read-out: % Inhibition (Example 13) @ 1 μM, 1 μM compound; for inhibition at 3 µM: read-out: % Inhibition (Example 13) @ 3 μM, 3 μM compound
# Method: as §1
# as §2, with “α-secretase” for “β-secretase”
# Test compounds were dissolved in DMSO to 10 mM.
# as §3, with “The screening” for “The”, “10 µL” for “10 μL”, “solution. The plates were then incubated for 1 hour at room temperature.” for “solution.”
# The procedure for the blank (negative control) was as follows. 15 μL of assay buffer was pipetted into each well to be used as a blank control. To each well was then added 2 μL of vehicle and 10 μL of FS1-substrate working solution. The plates were then incubated for 1 hour at room temperature.
# as §4, with “solution. The plates were then incubated for 1 hour at room temperature.” for “solution.”
# For test compounds, % inhibition was determined at each concentration as follows: […]
# T1 sequence (P56817 46-501): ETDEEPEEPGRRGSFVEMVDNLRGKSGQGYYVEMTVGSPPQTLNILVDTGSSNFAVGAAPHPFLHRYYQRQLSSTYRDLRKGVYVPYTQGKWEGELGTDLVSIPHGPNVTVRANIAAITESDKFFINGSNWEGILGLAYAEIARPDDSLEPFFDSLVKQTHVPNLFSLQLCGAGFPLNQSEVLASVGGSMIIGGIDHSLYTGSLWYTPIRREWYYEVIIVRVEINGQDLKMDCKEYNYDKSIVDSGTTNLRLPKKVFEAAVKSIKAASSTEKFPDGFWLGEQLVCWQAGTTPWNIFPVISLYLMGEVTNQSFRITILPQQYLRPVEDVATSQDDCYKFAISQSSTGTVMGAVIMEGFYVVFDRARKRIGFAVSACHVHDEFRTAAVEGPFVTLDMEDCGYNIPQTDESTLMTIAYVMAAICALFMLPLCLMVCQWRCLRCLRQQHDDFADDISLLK
Ki [1],inhibition at 0.3 µM [2],inhibition at 1 µM [2],inhibition at 3 µM [2],Structure (SMILES)
44 nM,65%,99%,111%,CC(C)[C@@H]1CCC(=O)N(CCCO)CCc2cccc(c2)Oc2ccc3c(c2)CN1C(N)=N3 [Compound 25]
11 nM,106%,117%,117%,CC(C)[C@@H]1CCC(=O)N(C2CCCCC2)CCOc2cccc(c2)Oc2ccc3c(c2)CN1C(N)=N3 [Compound 27]
